Each block holds one molecule with its values, some of them ahead of it.
Tests used:
Cox-2 = molecular target: T1, Cox-2 (Homo sapiens, UniProt P35354); assay: Cox-2 inhibitory activity; assay type: biochemical; details: ratio to diclofenac
T1 sequence (P35354 18-604): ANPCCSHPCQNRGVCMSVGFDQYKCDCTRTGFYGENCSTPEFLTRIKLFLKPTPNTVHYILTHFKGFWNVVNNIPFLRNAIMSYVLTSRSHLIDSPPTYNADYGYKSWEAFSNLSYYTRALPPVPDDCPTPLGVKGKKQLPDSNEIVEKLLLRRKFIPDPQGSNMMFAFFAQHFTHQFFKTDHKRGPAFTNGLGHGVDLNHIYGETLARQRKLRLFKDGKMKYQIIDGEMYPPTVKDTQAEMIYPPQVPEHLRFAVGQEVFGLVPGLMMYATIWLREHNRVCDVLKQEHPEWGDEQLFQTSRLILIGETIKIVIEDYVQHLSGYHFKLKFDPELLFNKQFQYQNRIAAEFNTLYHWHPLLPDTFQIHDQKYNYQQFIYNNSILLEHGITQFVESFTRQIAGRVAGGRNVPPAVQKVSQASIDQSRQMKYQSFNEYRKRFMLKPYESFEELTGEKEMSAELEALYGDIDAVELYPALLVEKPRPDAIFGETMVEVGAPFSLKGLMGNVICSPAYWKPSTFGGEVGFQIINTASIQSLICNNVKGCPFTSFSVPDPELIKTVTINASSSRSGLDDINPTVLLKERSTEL

[1] = Storage test (1-2) using 10 mM citrate buffer solution (pH 5.1); assay type: physicochemical; details: after storage, 1.0 wt % hyaluronic acid derivative, 10 mM citrate buffer pH 5.1, 1 week at 60° C.
Protocol: A citric acid aqueous solution having a citric acid concentration of 15 mM and a trisodium citrate aqueous solution having a citrate concentration of 15 mM were mixed at a ratio (volume ratio) of 27:37, whereby a citrate buffer solution was prepared. The pH of the citrate buffer solution after preparation was 5.1.
(§1) 1.5 g of the hyaluronic acid derivative of the above Synthesis Example and 98.5 g of each of the various buffer solutions prepared above were mixed and stirred for 2 hours in a water bath at 70° C., whereby a 1.5 wt % hyaluronic acid derivative solution was prepared.
(§2) Additional component aqueous solutions to be added to the hyaluronic acid derivative solution were prepared using various additional components and WFI so that the concentration of each component is three times as high as the final concentration (wt %).
(§3) 2.0 g of the 1.5 wt % hyaluronic acid derivative solution prepared above and 1.0 g of the additional component aqueous solution were mixed, whereby a test sample (final concentration of hyaluronic acid derivative: 1.0 wt %) was prepared.
(§4) The test samples prepared above containing each of the various buffer solutions (50 mM phosphate buffer solution, 10 mM citrate buffer solution, 10 mM acetate buffer solution, or 30 mM acetate buffer solution) were subjected to a storage test.
(§5) Each of the test samples was stored for 1 week in a thermostat chamber at 60° C., and thereafter, the accumulation amount of each of diclofenac and diclofenac lactam was measured by HPLC.
(§6) The amount of diclofenac and the amount of diclofenac lactam were calculated as relative values when each of the amount of diclofenac and the amount of diclofenac lactam present in the control solution (1 wt % hyaluronic acid derivative solution) after being stored for 1 week at 60° C. was assumed to be 1.
(§7) Each of the prepared various test samples was filled in a screw vial (AS ONE Corporation, Cat No. 3-1599-01) and left to stand at 60° C. for 1 week. The amount of diclofenac and the amount of diclofenac lactam present in the solution after being left to stand were quantitatively analyzed by HPLC.
(§8) The HPLC conditions are as follows.
(§9) The elution time of each of diclofenac and diclofenac lactam was determined by performing measurement in advance using a standard substance.
As the additional component, creatinine (1 wt %), sodium deoxycholate (5 wt %), 1,2,3-butanetriol (5 wt %), PEG 400 (6.3 wt % or 16.5 wt %), PEG 600 (10 wt %), PEG 4000 (10 wt %), PEG 6000 (10 wt %), SDS (5 wt %), Triton X-100 (5 wt %), ethanol (26 wt %), octyl glucoside (5 wt %), glucuronolactone (0.1 wt %), chlorogenic acid (0.1 wt %), propylene glycol (10 wt %), polysorbate 20 (5 wt %), or polyvinylpyrrolidone (5 wt %) was used.
Similarly, as the additional component, additional components of a two-component system of PEG 3350 (10.6 wt %) and polysorbate 80 (3 wt %), or PEG 3350 (6.0 wt %) and hydroxypropyl-β-cyclodextrin (10 wt %), or additional components of a three-component system of PEG 3350 (5.5 wt %), polysorbate 80 (1 wt %) and hydroxypropyl-β-cyclodextrin (10 wt %) were used.

[2] = Storage test (1-4) using 10 mM acetate buffer solution (pH 5.1); assay type: physicochemical; details: additional component 5 wt %; 1.0 wt % hyaluronic acid derivative, 10 mM acetate buffer pH 5.1, 1 week at 60° C., HPLC; control solution = 1
Protocol: An acetic acid aqueous solution having an acetic acid concentration of 15 mM and a sodium acetate aqueous solution having an acetate concentration of 15 mM were mixed at a ratio (volume ratio) of 1:3, whereby an acetate buffer solution was prepared. The pH of the acetate buffer solution after preparation was 5.1. In addition, an acetate buffer solution having an acetic acid concentration of 45 mM and a pH of 5.1 was prepared in a similar manner. […]
as §5, §6
as §7, with “HPLC. […]” for “HPLC.”
as §9

[3] = Evaluation of filterability of aqueous composition (Vmax); assay type: physicochemical; details: 1.0 wt % hyaluronic acid derivative, acetate buffer pH 5.1, 0.22 μm PVDF membrane, 0.6 MPa, 70° C.
Protocol: The calculation of the maximum treatment amount (Vmax) is more specifically performed as follows. That is, the aqueous composition at a liquid temperature of 70° C. is filtered under a pressure of 0.6 MPa using a polyvinylidene fluoride filtration membrane with a pore size of 0.22 μm. At that time, the total filtration amount per effective filtration area (V) of the filtration membrane is measured every 30 seconds until the flow rate (Q) becomes 1/10 or less of the flow rate at the start of filtration. By plotting the measurement results with the filtration time (t) along the horizontal axis and t/V along the vertical axis, the following formula A is calculated within a range of the measurement point where the transition of t/V is stable. The maximum treatment amount (Vmax) is determined from the reciprocal of the slope a of the calculation formula A (that is, the following calculation formula B). Note that the flow rate (Q) is the filtration amount per unit time (that is, Q=dV/dt).
The hyaluronic acid derivative prepared above and the 15 mM acetate buffer solution (pH 5.1) prepared above were mixed and stirred, and then, defoamed by being left to stand, whereby a 1.5 wt % hyaluronic acid derivative solution was prepared.
150.0 g of the 1.5 wt % hyaluronic acid derivative solution prepared above and 75.0 g of an additional component aqueous solution were mixed, whereby a test sample (final concentration of hyaluronic acid derivative: 1.0 wt %) was prepared.
In addition, a control solution in which 75.0 g of WFI was mixed in place of the additional component aqueous solution was also prepared.
To a stainless steel pressure filter holder in which a polyvinylidene fluoride (PVDF) membrane (47 mm in diameter, effective filtration area: 13.8 cm^2, manufactured by Merck & Co.) with a pore size of 0.22 μm was set, 200 mL of the test sample prepared above was added and pressure was applied at 0.6 MPa at 70° C. The amount of liquid passing through the filter was weighed every 30 seconds, and the maximum treatment amount (Vmax) was calculated from the relationship between the elapsed time and the total filtration amount.

[4] = Storage test (1-3) using 30 mM acetate buffer solution (pH 5.1); assay type: physicochemical; details: 1.0 wt % hyaluronic acid derivative, 30 mM acetate buffer pH 5.1, 1 week at 60° C., HPLC, control solution = 1
Protocol: An acetic acid aqueous solution having an acetic acid concentration of 15 mM and a sodium acetate aqueous solution having an acetate concentration of 15 mM were mixed at a ratio (volume ratio) of 1:3, whereby an acetate buffer solution was prepared. The pH of the acetate buffer solution after preparation was 5.1. In addition, an acetate buffer solution having an acetic acid concentration of 45 mM and a pH of 5.1 was prepared in a similar manner.
as §1, §2, §3, §4, §5, §6, §7, §8, §9
As the additional component, propyl gallate (1.5 wt %), any one of lactic acid anhydrous (1.5 wt %), hydroxypropyl cellulose (1.5 wt %), starch (1.5 wt %), dextran (5 wt %), sucrose (5 wt %), sodium saccharinate dihydrate (5 wt %), glycine (5 wt %), sodium aspartate (1.5 wt %), L-leucine (1.5 wt %), L-phenylalanine (5 wt %), L-serine (5 wt %), D-mannitol (1.5 wt %), D-sorbitol (5 wt %), hydroxypropyl-β-cyclodextrin (3 wt %, 5 wt %, 10 wt %, or 15 wt %), and ethanol (5 wt %, 10 wt %, 20 wt %, or 26.3 wt %) was used.

[5] = Storage test (1-1) using 50 mM phosphate buffer solution (pH 6.5); assay type: physicochemical; details: additional component 5 wt %; 1.0 wt % hyaluronic acid derivative, 50 mM phosphate buffer pH 6.5, 1 week at 60° C., HPLC; control solution = 1
Protocol: as §1, §2, §3, §4, §5, §6, §7, §8, §9

- Cox-2 inhibitory activity relative to that of diclofenac (Cox-2): about 1/100
Molecule: O=C1Cc2ccccc2N1c1c(Cl)cccc1Cl [diclofenac lactam]

- Solution properties ([1]; additional component 0.1 wt %): light yellow and clear
Molecule: O=C(/C=C/c1ccc(O)c(O)c1)O[C@@H]1C[C@](O)(C(=O)O)C[C@@H](O)[C@H]1O [chlorogenic acid]

- Solution properties ([1]; additional component 0.1 wt %): slightly yellow and clear
Molecule: O=C[C@H](O)[C@H]1OC(=O)[C@@H](O)[C@H]1O [glucuronolactone]

- Dic amount: the relative value of the amount of diclofenac [2]: 0.63
- Lac amount: the relative value of the amount of diclofenac lactam [2]: 0.34
Molecule: hydroxyethyl-β-cyclodextrin [HE-β-CD]

- Maximum treatment amount ([3]; additional component 5 wt %): 8.3 g/cm^2
- Maximum treatment amount ([3]; additional component 10 wt %): 10.4 g/cm^2
- Dic amount: the relative value of the amount of diclofenac ([4]; additional component 3 wt %): 0.62
- Lac amount: the relative value of the amount of diclofenac lactam ([4]; additional component 3 wt %): 0.45
- Dic amount: the relative value of the amount of diclofenac ([4]; additional component 5 wt %): 0.54
- Lac amount: the relative value of the amount of diclofenac lactam ([4]; additional component 5 wt %): 0.34
- Dic amount: the relative value of the amount of diclofenac ([4]; additional component 10 wt %): 0.44
- Lac amount: the relative value of the amount of diclofenac lactam ([4]; additional component 10 wt %): 0.23
- Dic amount: the relative value of the amount of diclofenac ([4]; additional component 15 wt %): 0.36
- Lac amount: the relative value of the amount of diclofenac lactam ([4]; additional component 15 wt %): 0.17
Molecule: hydroxypropyl-β-cyclodextrin [HP-β-CD]

- Solution properties ([1]; additional component 5 wt %): colorless and clear
Molecule: polysorbate 20

- Dic amount: the relative value of the amount of diclofenac [5]: 1.15
Molecule: OC[C@H]1OC=C[C@@H](O)[C@@H]1O [D-glucal]

Molecule: COc1ccc(O)c(C(C)(C)C)c1 [butylhydroxyanisole]
- Dic amount: the relative value of the amount of diclofenac [5]: 0.99

- Solution properties ([1]; additional component 10 wt %): colorless and slightly turbid
Molecule: CC(O)CO (centres unmarked) [propylene glycol]

- Dic amount: the relative value of the amount of diclofenac [5]: 1.02
Molecule: OCC(O)CO [glycerin]

Molecule: octylphenol ethoxylate [Triton X-100]
- Solution properties ([1]; additional component 5 wt %): colorless and clear

- Solution properties ([1]; additional component 5 wt %): colorless and clear
Molecule: CCCCCCCCO[C@@H]1O[C@H](CO)[C@@H](O)[C@H](O)[C@H]1O [octyl glucoside]

- Maximum treatment amount ([3]; additional component 5 wt %): 10.3 g/cm^2
- Maximum treatment amount ([3]; additional component 10 wt %): 8.2 g/cm^2
- Solution properties ([1]; additional component 26 wt %): colorless and clear
Molecule: CCO [ethanol]

- Solution properties ([1]; additional component 5 wt %): colorless and clear
Molecule: CCCCCCCCCCCCOS(=O)(=O)[O-].[Na+] [SDS, sodium dodecyl sulfate]
